In ChEMBL document CHEMBL5137112, “Semisynthetic Transformations on (+)-Boldine Reveal a 5-HT2A/2CR Antagonist” (J Nat Prod, 2022) one finds IC50, Ratio Ki and Ki data, which are given here for 4 compounds.

pIC50, pKi: −log10 of the molar value.

For assay [1], the target named is T1, 5-hydroxytryptamine receptor 2C (Homo sapiens, UniProt P28335).
T1 sequence (P28335 whole entry): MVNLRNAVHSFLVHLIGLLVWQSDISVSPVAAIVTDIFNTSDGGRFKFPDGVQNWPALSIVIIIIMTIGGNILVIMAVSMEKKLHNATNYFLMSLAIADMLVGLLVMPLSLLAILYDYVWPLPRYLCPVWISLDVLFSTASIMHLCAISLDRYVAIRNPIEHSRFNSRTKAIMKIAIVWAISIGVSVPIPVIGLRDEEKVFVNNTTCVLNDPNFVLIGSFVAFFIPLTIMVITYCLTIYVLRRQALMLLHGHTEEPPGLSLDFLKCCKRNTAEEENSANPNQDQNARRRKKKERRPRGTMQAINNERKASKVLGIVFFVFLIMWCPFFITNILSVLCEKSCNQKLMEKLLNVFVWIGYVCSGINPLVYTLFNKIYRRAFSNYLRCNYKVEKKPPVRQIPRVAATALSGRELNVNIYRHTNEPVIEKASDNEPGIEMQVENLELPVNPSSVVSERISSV
Kind of assay: Antagonist activity at 5-HT2C receptor (unknown origin) incubated for 60 mins followed by 10 mins incubation in dark at room temperature by FLIPR method. The class given is functional.

Assay [2] has as its target Serotonin 2 receptors; 5-HT2a & 5-HT2c (Homo sapiens) (UniProt P28223+P28335). In words: Selectivity ratio of Ki for 5-HT2A receptor (unknown origin) to Ki for 5-HT2C receptor (unknown origin). The class given is protein assay.
The target of assay [3] is T2, 5-hydroxytryptamine receptor 2B (Homo sapiens, UniProt P41595). Kind of assay: Displacement of [3H]LSD from 5-HT2B receptor (unknown origin) assessed as inhibition constant incubated for 90 mins by MicroBeta scintillation counting method.
Assay [4] deals with T1, 5-hydroxytryptamine receptor 2C. In words: Displacement of [3H]Mesulergine from 5-HT2C receptor (unknown origin) assessed as inhibition constant incubated for 90 mins by MicroBeta scintillation counting method. For orientation: Loss of bound radioactivity is the signal in a displacement assay; it reports binding, not function.
Assay [5] concerns the target T3, 5-hydroxytryptamine receptor 2A (Homo sapiens, UniProt P28223). Kind of assay: Antagonist activity at 5-HT2A receptor (unknown origin) incubated for 60 mins followed by 10 mins incubation in dark at room temperature by FLIPR method. In kind it is functional.
The species entered for assay [6] is Homo sapiens. Kind of assay: Selectivity ratio of Ki for 5-HT2B receptor (unknown origin) to Ki for 5-HT2C receptor (unknown origin).
For assay [7], the species on record is Homo sapiens. Kind of assay: Selectivity ratio of Ki for 5-HT2A receptor (unknown origin) to Ki for 5-HT2B receptor (unknown origin).
Assay [8] concerns the target T3, 5-hydroxytryptamine receptor 2A. In words: Displacement of [3H]Ketanserin from 5-HT2A receptor (unknown origin) assessed as inhibition constant incubated for 90 mins by MicroBeta scintillation counting method.
Assay [9] addresses T2, 5-hydroxytryptamine receptor 2B. In words: Antagonist activity at 5-HT2B receptor (unknown origin) incubated for 60 mins followed by 10 mins incubation in dark at room temperature by FLIPR method. In kind it is functional.

Chain of Serotonin 2 receptors; 5-HT2a & 5-HT2c (Homo sapiens) (P28223 whole entry, looked up, one chain of several): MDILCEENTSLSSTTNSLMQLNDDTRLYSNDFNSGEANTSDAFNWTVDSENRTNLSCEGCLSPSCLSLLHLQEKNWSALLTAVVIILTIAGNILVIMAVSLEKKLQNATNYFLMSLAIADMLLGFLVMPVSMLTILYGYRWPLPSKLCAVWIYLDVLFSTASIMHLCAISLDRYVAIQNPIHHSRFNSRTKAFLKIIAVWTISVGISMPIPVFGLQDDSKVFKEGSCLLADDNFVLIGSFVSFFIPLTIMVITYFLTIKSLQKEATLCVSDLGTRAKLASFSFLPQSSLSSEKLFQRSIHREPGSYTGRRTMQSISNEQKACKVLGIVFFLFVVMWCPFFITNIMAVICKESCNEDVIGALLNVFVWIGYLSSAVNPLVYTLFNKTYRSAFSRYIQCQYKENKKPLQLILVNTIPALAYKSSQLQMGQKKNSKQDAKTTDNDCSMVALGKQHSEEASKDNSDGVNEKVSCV
T3 sequence (P28223 whole entry): as the sequence (P28223 whole entry, looked up, one chain of several) above
T2 sequence (P41595 whole entry): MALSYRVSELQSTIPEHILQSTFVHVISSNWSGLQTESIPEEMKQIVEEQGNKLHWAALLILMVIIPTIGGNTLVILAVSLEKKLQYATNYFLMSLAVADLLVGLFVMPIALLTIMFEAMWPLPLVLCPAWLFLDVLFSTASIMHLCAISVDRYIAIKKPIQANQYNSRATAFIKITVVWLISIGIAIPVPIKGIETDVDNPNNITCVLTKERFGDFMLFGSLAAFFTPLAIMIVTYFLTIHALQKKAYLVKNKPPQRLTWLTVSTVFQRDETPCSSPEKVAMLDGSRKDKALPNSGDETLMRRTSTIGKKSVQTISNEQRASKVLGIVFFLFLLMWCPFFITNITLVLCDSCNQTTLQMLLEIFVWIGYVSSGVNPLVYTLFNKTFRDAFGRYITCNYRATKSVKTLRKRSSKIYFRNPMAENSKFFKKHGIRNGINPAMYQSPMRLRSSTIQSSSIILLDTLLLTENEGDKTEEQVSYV

As for `COc1cc2c(cc1OC)-c1c(OC)c(OCc3ccc(Br)cc3)cc3c1[C@H](C2)N(C)CC3`, the pIC50 (usually the negative decadic logarithm of the IC50, by convention in mol/L) was 6.36 in assay [1], 6.79 in assay [5] and 5.52 in assay [9]. Moreover, the Ratio Ki came out at 0.9 in [2], 16 in the assay filed under Homo sapiens [6] and 0.06 in the assay filed under Homo sapiens [7]. In addition, the pKi (as a rule, −log10 of the Ki, conventionally taken in molar units) in [3] is 6.44; in [4], 7.64; in [8], 7.70.
Turning to `COc1cc2c(cc1OC)-c1c(OC)c(OCc3ccccc3)cc3c1[C@H](C2)N(C)CC3`, the pIC50 in assay [1] was 6.79; in [5], 6.86; in assay [9], 5.91. Also, the Ratio Ki in [2] was found to be 5.5; in the assay filed under Homo sapiens [6] it was 12; in the assay listed under Homo sapiens [7], 0.5. Also, the figures for the pKi in assay [3], in [4] and in assay [8] were 7.32, 8.40 and 7.66, respectively.
`COc1cc2c(cc1OC)-c1c(OC)c(OCC3CC3)cc3c1[C@H](C2)N(C)CC3`: the Ratio Ki in assay [2] came out at 2.3; in the assay listed under Homo sapiens [6] it was 0.4; in the assay filed under Homo sapiens [7] it was 6. Moreover, the figures for the pKi in [3], in [4] and in assay [8] were 7.40, 6.98 and 6.62, respectively.
With `CCC(C)Oc1cc2c3c(c1OC)-c1cc(OC)c(OC)cc1C[C@@H]3N(C)CC2` (stereo not given in full), the Ratio Ki worked out at 3.1 in [2], 1 in the assay filed under Homo sapiens [6] and 3.1 in the assay listed under Homo sapiens [7]. The values for the pKi in assay [3], in [4] and in assay [8] were 7.02, 7.03 and 6.53, respectively.
